Experimental data: patent publication US12090158B2, “Medicine for diabetic peripheral neuropathy” (NIPPON CHEMIPHAR CO., LTD., priority 2018, dated 2024)

Key:
[1] = test system: STZ-induced diabetic neuropathy model rat; test: STZ-induced diabetic neuropathy model rat, von Frey up-down stimulation method, 50% escape response threshold; type: in vivo; settings: oral, compared with STZ control group
Protocol: As one embodiment, the study was performed by administering the compound of the present invention to an STZ-induced diabetic neuropathy model rat, then giving a stimulus thereto by an up-down stimulation method, and calculating a 50% escape response threshold.
A model was prepared by intravenously administering STZ as a diabetes-inducing substance to a rat. In a test, an animal that had developed diabetic neuropathy 35 days after STZ administration was used.
On the day before administration of STZ and the day before administration of a test substance, about 100 μL of blood was collected from the tail vein using a winged injection needle equipped with a heparin-treated capillary. The obtained blood was centrifuged with a centrifuge [centrifugation conditions: 4° C., 3,000 rpm (×2,150 g), 15 min], and then plasma was obtained. The blood glucose level of the obtained plasma was measured using a hexokinase G-6-PDH method using an automatic biochemical analyzer. Note that the amount of the obtained plasma was very small, and therefore the measurement was performed by diluting the plasma 5 times with physiological saline. […]
35 days after administration of STZ, before administration, a 50% escape response threshold was measured, and the animals were divided into groups each including two animals such that the groups had the same average of escape response thresholds and the same average of body weights (severity of 50% escape response threshold: 8, severity of weight: 2). […]
Pain was evaluated during a pre-breeding period, and 35 days after administration of STZ, before administration of a test substance and one, two, four, and six hours after administration of the test substance. […] From the result, a 50% escape response threshold was calculated by the following method for calculating a 50% escape response threshold (the 50% escape response threshold was rounded off to two decimal places). […]

[2] = test system: rats (SD, male); test: Rota-rod test, effect on motor coordination; type: in vivo, rat; settings: 60 mg/kg oral once, three hours after administration; for walking duration (time to fall from the rod): 10 rpm, cut-off 120 seconds
Protocol: As an index for studying a central inhibitory effect and a muscle relaxation effect, an effect on motor coordination was studied using a Rota-rod test.
In each of the groups, the number of samples was 8. Before a test, a rotation speed was set to 10 rpm using a mark on a rotating disk of Rota-rod (47700, UGO BASILE S.R.L.). A rat was gently placed on the rotating rod, and it was confirmed that the rat was placed on the rod stably. Thereafter, time (seconds) for the rat to fall from the rod was recorded. A cut-off value was 120 seconds. Trials were performed before administration of a test substance and three hours after the administration. At each measurement time, trials were performed up to three times. In a case where the cut-off value was reached, 120 seconds was taken as a walking duration at the time. In a case where the cut-off value was not reached in all three trials, an average of the three values was taken as a walking duration at the time.

Structure (SMILES) | 50% escape response threshold ([1]; 3 mg/mL group, two hours and four hours after administration) | 50% escape response threshold ([1]; 10 mg/mL group, one hour to four hours after administration) | 50% escape response threshold ([1]; 30 mg/mL group, one hour to four hours after administration) | effect on motor coordination ([2]; Rota-rod) | walking duration (time to fall from the rod) [2]
O=C1CC(=O)N(c2ccc(NC(=O)c3ccccc3I)cc2)c2ccc3ccccc3c2N1 [Example 48 (Compound), 5-[4-(2-iodobenzoylamino)phenyl]-1H-naphtho [1,2-b] [1,4]diazepine-2,4 (3H,5H)-dione] | significantly increased | significantly increased | significantly increased | no effect on motor coordination | 120 s
CC(C)C[C@H](CN)CC(=O)O [pregabalin, reference compound] |  |  |  |  | 22 ± 5 s
